The source of these data is US6555533B2, “Use of certain substituted caprolactams in treating tumors” (Novartis AG, priority 1998, dated 2003).

Data set [1] has as its system MDA-MB-435 tumor xenografts. Put plainly: MDA-MB-435 breast carcinoma xenograft model. The format is in vivo, athymic (nu/nu) mice. As for the experimental part: Positive controls are carried out with doxorubicin administered 3 times per week i.v.
The following results were obtained for compounds of Ex.1-Ex.12 tested against MDA-MB-435 tumor xenografts 3×/week for 3 weeks: […]

Data set [2] concerns MDA-MB-435 breast carcinoma. Put plainly: Anchorage Dependent Growth Monolayer Assay (ADGMA), MDA-MB-435. In kind it is cell-based, human. To be noted: 3-day exposure, MTS readout, read-out: IC50 (average±S.D.) MDA-MB-435. As for the experimental part: As indicated above, all of the compounds of formula I, and their corresponding pharmaceutically acceptable acid addition salts, are anti-tumor agents and are, therefore, useful in inhibiting the growth of various lymphomas, sarcomas, carcinomas, myelomas, and leukemia cell lines.
The ADGMA compares the number of viable cells following a 3-day exposure to a test compound relative to a number of cells present at the time the test compound was added. […] The absorbance at 490 nm (A490) of the formazan derivative is proportional to the number of viable cells. The IC50 for a test compound is the concentration of compound required to reduce the final cell number to 50% of the final control cell number. If cell proliferation is inhibited, the assay further defines compounds as cytostatic (cell number after 3-day compound incubation >cell number at time of compound addition) or cytotoxic (cell number after 3-day compound incubation <cell number at time of compound addition).
The MDA-MB-435 breast carcinoma line was obtained from the American Type Culture Collection (ATCC) and used between passages 4-20 following thawing. MDA-MB-435 breast carcinoma was maintained and plated in DME/F12 medium containing 10% fetal bovine serum, 15 mM HEPES (pH=7.4), 100 units/mL penicillin, and 100 μg/mL streptomycin.
Cell lines are trypsinized and counted using a Coulter counter to determine plating densities. Cells are then plated in their respective maintenance media (100 μL/well) in 96 well plates at the following densities: MDA-MB-435, 3,000 cells/well; A549 and HCT-116, 700 cells/well; are PC-3, 2500 cells/well. The number of cells plates as determined in preliminary experiments, results in cell densities of 75-90% of confluency by 4 days after plating. Initial cell densities, assayed one day after plating, are roughly 0.15-0.20 absorbance units greater than the media blank. Ninety-six well plates are seeded on day 0 and the test compounds are added on day 1. A control plate is created for each cell line that receives media only in row A and cells in row B. One day following plating, test compounds are added (in a final volume of 100 μL) to the test plates. Control plates receive 10 μL MTS mixture (prepared fresh on day of addition to cell plates at a ratio of 10 μL of a 0.92 mg/mL solution of PMS to a 190 μL of a 2 mg/mL solution of MTS) and 100 μL media. A490 of control plates is read 4 h after MTS addition to determine initial cell density values for each cell line. Three days after addition of test compound, 10 μL/well of MTS mixture is added to the test plates and A490 is read 4 h later. A490 values for wells containing cells are corrected for media absorbance, then normalized to initial density readings to determine percent net growth. IC50 values are determined from graphs of percent net growth as a function of compound concentration. Percent net growth is calculated as (Cell+Drug A490−Initial A490/Cell+Drug Vehicle A490−Initial A490).

The next data set has as its system PC-3 tumor xenografts. Put plainly: PC-3 prostate carcinoma xenograft model. To be noted: 15 mg/kg i.v. daily for the first five days (positive control). The format is in vivo, athymic (nu/nu) mice.
The next data set has as its system A549 tumor xenografts. An excerpt:
Utilizing this model, one can measure the ability of test compounds to inhibit the growth of human tumor xenografts growing subcutaneously (s.c.) in athymic nude mice. The histologic tumor types employed were MDA-MB-435 breast, A549 non-small cell lung, HCT-116 colon and PC-3 prostate carcinomas.
A549 non-small cell lung carcinoma xenograft model: Briefly, 10 million cells were implanted s.c. into the right flank of athymic (nu/nu) mice, and were allowed to grow until a mass of approximately 120 mm^3 was established. The test compounds are administered three times per week intravenously (i.v.) for three weeks in 5% dextrose, 10%DMSO in water. The test compounds are administered in dose-response fashion in order to evaluate and document the full potential range of activity (efficacy and toxicity) for a given compound. Positive controls are carried out with mitomycin C administered 3 times per week intraperitioneally (i.p.).
Toxicity was monitored by recording average group body weights twice weekly, and by daily observation of general health. Efficacy was monitored by taking measurements of tumor length, width, and depth weekly using digital calipers coupled to automated data collectors. Mean tumor volume (MTV) at initiation of therapy was subtracted from final MTV in order to express the actual tumor growth during treatment (ΔMTV). Anti-tumor activity was expressed as %T/C (ΔMTV of treated group÷ΔMTV of control group×100). Regressions were calculated using the formula: (T/T0−1)×100%, where T is the tumor volume for the treatment group at the end of the experiment, and T0 is the tumor volume at the beginning of the experiment. Statistical significance was evaluated using a one-tailed Student's t-test (p<0.05).

The next data set deals with HCT-116 tumor xenografts. Put plainly: HCT-116 colon carcinoma xenograft model. To be noted: 75 mg/kg i.v. 1 time per week (positive control). The format is in vivo, athymic (nu/nu) mice. As for the experimental part: Positive controls are carried out with 5-fluorouracil administered 1 time per week i.v.
Setting [3] is: 10 μmol/kg i.v. 3×/week for 3 weeks.
The mark [4] stands for this setting: 33 μmol/kg i.v. 3×/week for 3 weeks.
The mark [5] stands for this setting: 2 mg/kg i.p. 3 times per week (positive control).

Like-named read-outs stand apart in the source and are kept apart here. Marks after values point to notes of the source that are not given here.

Take `CO[C@@H](C(=O)N[C@H]1CC[C@@H](OC(=O)CC2CCCCC2)CNC1=O)[C@H](O)[C@@H](O)[C@H](O)/C=C/C(C)(C)C` [Ex. 6, (2R, 3R, 4S, 5R, 6E)-3,4,5-Trihydroxy-2-methoxy-8,8-dimethyl-N-[(3S, 6R)-hexahydro-2-oxo-6-(cyclohexylmethylcarbonyl)oxy-2H-azepin-3-yl]non-6-enamide]: in data set [1] (setting [3]), the “% T/C” value is on record as 47* % and the Dead/Total is on record as 0/8. In data set [1] (setting [4]), the “% T/C” value is reported as 34* % and the Dead/Total is listed as 0/8.
By IC50 is commonly meant the point on the concentration scale where inhibition reaches its midpoint. For the compound `CO[C@@H](C(=O)N[C@H]1CC[C@@H](OC(=O)Cc2c[nH]c3ccccc23)CNC1=O)[C@H](O)[C@@H](O)[C@H](O)/C=C/C(C)(C)C` [Ex. 14, (2R, 3R, 4S, 5R, 6E)-3,4,5-Trihydroxy-2-methoxy-8,8-dimethyl-N-[(3S, 6R)-hexahydro-2-oxo-6-(1-oxo-3-[3-indolyl]ethoxy)-2H-azepin-3-yl]non-6-enamide], in data set [2], the IC50 is 1240 ± 196 nM.
With `CO[C@@H](C(=O)N[C@H]1CC[C@@H](OC(=O)C2CCCCCC2)CNC1=O)[C@H](O)[C@@H](O)[C@H](O)/C=C/C(C)(C)C` [Ex. 3, (2R, 3R, 4S, 5R, 6E)-3,4,5-Trihydroxy-2-methoxy-8,8-dimethyl-N-[(3S, 6R)-hexahydro-2-oxo-6(cylohpetylcarbonyl)oxy-2H-azepin-3-yl]non-6-enamide], in data set [1] (setting [3]), the “% T/C” value is 39* % and the Dead/Total is listed as 0/8. For the same compound, in data set [1] (setting [4]), the “% T/C” value was 28* % and the Dead/Total is recorded as 0/8. For the same compound, in data set [2], the IC50 is 32 ± 14 nM.
Take `CCCCCCCCCCc1ccc(C(=O)O[C@@H]2CC[C@H](NC(=O)[C@H](OC)[C@H](O)[C@@H](O)[C@H](O)/C=C/C(C)(C)C)C(=O)NC2)cc1` [Ex. 12, (2R, 3R, 4S, 5R, 6E)-3,4,5-Trihydroxy-2-methoxy-8,8-dimethyl-N-[(3S, 6R)-hexahydro-2-oxo-6-([4-n-decylphenyl]carbonyl)oxy-2H-azepin-3-yl]non-6-enamide]: in data set [1] (setting [3]), the “% T/C” value stood at 52% and the Dead/Total was 0/8. For the same compound, in data set [1] (setting [4]), the “% T/C” value is reported as 7* % and the Dead/Total is listed as 0/8. Further, the IC50 in data set [2] (Homo sapiens, MDA-MB-435, 72 h) was 27 ± 37 nM.
In the case of `CCCCCCCCCCOc1ccc(C(=O)O[C@@H]2CC[C@H](NC(=O)[C@H](OC)[C@H](O)[C@@H](O)[C@H](O)/C=C/C(C)(C)C)C(=O)NC2)cc1` [Ex. 10, (2R, 3R, 4S, 5R, 6E)-3,4,5-Trihydroxy-2-methoxy-8,8-dimethyl-N-[(3S, 6R)-hexahydro-2-oxo-6-([4-n-decyloxyphenyl]carbonyl)oxy-2H-azepin-3-yl]non-6-enamide], in data set [1] (setting [3]), the “% T/C” value is recorded as 64* % and the Dead/Total is recorded as 0/8. In addition, in data set [1] (setting [4]), the “% T/C” value is reported as 2* %, the Dead/Total was 0/8 and the “Δ MTV” value is recorded as 4 mm^3. Further, the 50% inhibitory concentration (IC50) in data set [2] (Homo sapiens, MDA-MB-435, 72 h) was determined as 6 ± 4 nM.
As to `CC(=O)O[C@H]1C(=O)[C@@]2(C)[C@H]([C@H](OC(=O)c3ccccc3)[C@]3(O)C[C@H](OC(=O)[C@H](O)[C@@H](NC(=O)c4ccccc4)c4ccccc4)C(C)=C1C3(C)C)[C@]1(OC(C)=O)CO[C@@H]1C[C@@H]2O` [Paclitaxel, reference compound], in the data set with PC-3 tumor xenografts, the “% regression” value was 100 regression* %, the Dead/Total is on record as 3/8 and the “Δ MTV” value is reported as −103 mm^3.
Regarding `CO[C@@H](C(=O)N[C@H]1CC[C@@H](OC(=O)Cc2ccccc2)CNC1=O)[C@H](O)[C@@H](O)[C@H](O)/C=C/C(C)(C)C` [Ex. 7, (2R, 3R, 4S, 5R, 6E)-3,4,5-Trihydroxy-2-methoxy-8,8-dimethyl-N-[(3S, 6R)-hexahydro-2-oxo-6-(1-oxo-2-phenylethoxy)-2H-azepin-3-yl]non-6-enamide.], in data set [1] (setting [3]), the “% T/C” value is given as 72% and the Dead/Total is recorded as 0/8. In data set [1] (setting [4]), the “% T/C” value is recorded as 43* % and the Dead/Total is listed as 0/8. The IC50 in data set [2] came to 262 ± 70 nM.
Take `CO[C@@H](C(=O)N[C@H]1CC[C@@H](OC(=O)Cc2ccc(Cl)c(Cl)c2)CNC1=O)[C@H](O)[C@@H](O)[C@H](O)/C=C/C(C)(C)C` [Ex. 8, (2R, 3R, 4S, 5R, 6E)-3,4,5-Trihydroxy-2-methoxy-8,8-dimethyl-N-[(3S, 6R)-hexahydro-2-oxo-6-(1-oxo-2-[3,4-dichlorophenyl]ethoxy)-2H-azepin-3-yl]non-6-enamide]: in data set [1] (setting [3]), the “% T/C” value turned out to be 62% and the Dead/Total was 0/8. Also, in data set [1] (setting [4]), the “% T/C” value turned out to be 67% and the Dead/Total is reported as 0/8.
For the compound `CO[C@@]12[C@H](COC(N)=O)C3=C(C(=O)C(C)=C(N)C3=O)N1C[C@@H]1N[C@@H]12` [Mitomycin C, reference compound], in the data set on A549 tumor xenografts (setting [5]), the “% T/C” value is recorded as 20* % and the “Δ MTV” value is on record as 15 mm^3. The Dead/Total in the data set with A549 tumor xenografts (mouse, in vivo) is given as 0/8.
Regarding `COc1ccc(CC(=O)O[C@@H]2CC[C@H](NC(=O)[C@H](OC)[C@H](O)[C@@H](O)[C@H](O)/C=C/C(C)(C)C)C(=O)NC2)cc1` [Ex. 9, (2R, 3R, 4S, 5R, 6E)-3,4,5-Trihydroxy-2-methoxy-8,8-dimethyl-N-[(3S, 6R)-hexahydro-2-oxo-6-(1-oxo-2-[4-methoxyphenyl]ethoxy)-2H-azepin-3-yl]non-6-enamide], in data set [1] (setting [3]), the “% T/C” value is 76% and the Dead/Total is on record as 0/8. For the same compound, in data set [1] (setting [4]), the “% T/C” value is given as 48* % and the Dead/Total is 0/8.
As to `CO[C@@H](C(=O)N[C@H]1CC[C@@H](OC(=O)/C=C/c2ccccc2)CNC1=O)[C@H](O)[C@@H](O)[C@H](O)/C=C/C(C)(C)C` [Ex. 11, (2R, 3R, 4S, 5R, 6E)-3,4,5-Trihydroxy-2-methoxy-8,8-dimethyl-N-[(3S, 6R)-hexahydro-2-oxo-6-(1-oxo-3-phenyl-2-propenoxy)-2H-azepin-3-yl]non-6-enamide], in data set [1] (setting [3]), the Dead/Total is reported as 0/8 and the “Δ MTV” value is 135 mm^3. Besides, in data set [1] (setting [4]), the Dead/Total was 0/8 and the “Δ MTV” value worked out at 76 mm^3.
For `O=c1[nH]cc(F)c(=O)[nH]1` [5-fluorouracil, reference compound], in the data set on HCT-116 tumor xenografts, the “% T/C” value was 16* %, the Dead/Total is 0/8 and the “Δ MTV” value is on record as 65 mm^3.
